The values below come from patent publication US20240197890A1, “FLAVONE DERIVATIVES AND USES IN TARGETING CK2-MEDIATED DISEASES AND CONDITIONS” (Salk Institute for Biological Studies, priority 2020, published 2024).

In one test the test system is AKT pS473. Briefly: Immunofluorescence of AKT pS473 in IL1β-stimulated primary astrocytes. Format: cell-based. To be noted: IL1-β for 5 h. The procedure:
Immunotluorescence. […] After treatment, cells were fixed with 4% paraformaldehyde solution for 20 min at room temperature and washed 3× with DPBS for 10 min each. The cells were permeabilized using 5% horse serum and 10% Triton X in DPBS for 15 min at room temperature and blocked with 5% horse serum in PBS for 30 min at room temperature. Cells were incubated with primary antibodies in blocking buffer either overnight at 4° C. or for 2 hours at room temperature. After incubation, cells were washed 3× with PBS, blocked using 5% horse serum in PBS for 30 min at room temperature, and incubated with Cy3 red-labeled or AF488 green-labeled secondary antibodies diluted in blocking buffer for 1 hour at room temperature. The cells were washed once with PBS for 10 min, then counter-stained with DAPI. The cells were washed 3× with PBS and mounted with glass coverslips and Immu-Mount solution. Images were obtained with the Zeiss fluorescent microscope. […]

The test system of test [1] is IL-6, IL-8, TNF-α and MCP-1 in primary human cerebellar astrocytes (HCA). The test is described as follows: Flow-cytometry assay of intracellular cytokine production in IL1-β-treated astrocytes. The test is classed as cell-based. As to the method: Flow cytometry. For each well of HCA in a 6-well plate, 2 mL of fresh media with GolgiPLUG (BD #555029, 1:1000) and GolgiSTOP (BD #554724, 1:1000) with 20 μM compound or vehicle (DMSO) and IL1-β 10 ng/mL or DPBS was added. The cells were incubated for 5 h at 37° C. Cells were collected with TrypLE and plated into a 96-well V-bottom plate for staining. The plate was centrifuged for 5 min, 1300 rpm, 4° C. to pellet cells, which were subsequently resuspended in 100 μl DPBS with 1 μl Zombie Violet (Biolegend #423113) and 5 μl Human Trustain FC block (Biolegend #422302) per well for 15 min at room temperature in the dark. The plate was centrifuged, supernatant was aspirated, and the cells were washed with 100 μl/well DPBS. Cells were fixed with 100 μl/well of Cytofix/Cytoperm (BD) for 20 min at 4° C. The plate was centrifuged, supernatant was aspirated, and cells were resuspended in 100 μl Permwash (BD) and incubated for 15 min at 4° C. The plate was centrifuged, supernatant was aspirated, and cells were incubated with 100 μl/well of Ab mix or isotype mix in Permwash (see below) for 20 min at 4° C., followed by centrifugation and 2× PermWash washes. The cells were resuspended in 100 ul DPBS and transferred to FACS tubes containing 200 ul of PBS (total volume per tube 300 μl) for analysis on FACS Analyzers (LSRII or Fortessa).
Primary human cerebellar astrocytes (HCA) were co-treated with 20 μM of each compound or vehicle (DMSO), 10 ng/mL IL1-β, and a protein transport inhibitor for 6 hours, and then processed for intracellular staining of pro-inflammatory cytokines IL-6, IL-8, TNF-α, and MCP-1. […]; in vitro IC50 values are for CK2 as reported in the literature).

Test [2] concerns iGluta neurons co-cultured with BD or CT astrocytes. Briefly: Neuronal activity of iGluta neurons co-cultured with pretreated astrocytes. The test is classed as cell-based, human. The note with it: BD astrocytes pretreated 5 h with IL1β and 20 μM compound, compared to vehicle. From the text:
Activity of CT astrocytes is also renormalized (C+vs. D+).

The next test has as its system IL6 expression. Briefly: IL6 expression in AD patient iPSC-derived astrocytes after IL1-β stimulation (qRT-PCR). Format: cell-based, human. To be noted: controls and AD astrocytes. (In general: In qPCR the cycle at which signal appears reflects the starting amount.)
Test [3] has as its system microglial phagocytosis of pHrodo E. coli beads. The test is described as follows: Microglial phagocytosis assay. The test is classed as cell-based, human. The note with it: 20 μM, 5 h treatment. The procedure: Phagocytosis assay. […] Then, 0.5 μl of pH rodo E. coli-FITC beads (Thermo Fisher, P35366) was added per well with gentle mixing and the cells were incubated for another 4 hours. pHrodo beads only fluoresce when they are internalized in cells. Cells were then collected by scraping, washed with FACS buffer, and counter-stained with Zombie Violet to assess viability. Live cells were analyzed on the FACS Canto instrument for geometric mean fluorescence on the FITC channel. The background FITC fluorescence value (pHrodo beads only) was subtracted from each mean, and fold-change was computed across experimental groups.

Consider `COc1cc(-c2cc(=O)c3c(O)cc(O)cc3o2)ccc1O` [CHR, chrysoeriol], for which the “AKT pS473 levels” value in the test on AKT pS473 is reported as “reduced”. Further, the “suppression of IL1-β-induced IL-6, IL-8, TNF-α and MCP-1 cytokine upregulation” value in test [1] (20 μM, human astrocytes) is given as “strong suppressive activity”. For the same molecule, the “summary of SAR data, activity class” value in test [1] (at 20 μM, FIG. 5A) is given as “active”. The “neuronal activity (mean firing rate)” value in test [2] is given as “increased”. In addition, the “IL6 expression after IL1-β stimulation” value in the test on IL6 expression is “reduced”. For the same molecule, the “microglial phagocytosis of pHrodo E. coli beads” value in test [3] was “blocked”.
